{"source": "paper PMC10257182", "about": "“Discovery of senolytics using machine learning” (Nature Communications, 2023)", "assay_type_in_all_cases": "cell-based, human", "key": {"[1]": {"tested_on": "senescent IMR90 ER:RAS cells", "assay": "Cell survival assay using crystal violet staining, OIS, senescent cells", "method": "(§1) Equal numbers of control and senescent cells were plated at high density on multiwell plates just before senolytic treatment addition. After treatment, cells were fixed on 0.5% glutaraldehyde (Sigma) and then dried at RT overnight. Then, wells were stained with crystal violet solution for 3 h, washed and dried. Once they were completely dry, the plates were scanned for records. Quantification was performed extracting the staining with 1% acetic acid and measuring the final solution by absorbance at 595 nm."}, "[2]": {"tested_on": "A549 cells treated with 100 μM etoposide", "assay": "Cell survival assay using crystal violet staining, TIS, senescent cells", "conditions": "fraction of Control DMSO = 1, n 15"}, "[3]": {"tested_on": "proliferating IMR90 cells", "assay": "BrdU incorporation proliferation assay", "method": "5-bromo-2′-deoxyuridine (BrdU) incorporation was used to measure the number of cells actively replicating DNA. Cells were incubated with 10 μM BrdU (85811, Sigma) for 18 h. After that, cells were fixed with 4% Paraformaldehyde, permeabilised, blocked and then stained for immunofluorescence using BrdU primary antibody (555627 BD Pharmigen), Alexa fluor secondary for detection, and DAPI staining for cell counting. Acquisition was done with a Nikon TI2 microscope and analysis was performed with ImageJ for cell counting."}, "[4]": {"tested_on": "NOXA mRNA in senescent IMR90 ER:RAS cells", "assay": "NOXA mRNA expression by RT-qPCR, OIS", "method": "(§2) Total RNA was isolated using RNAeasy kit (Quiagen). cDNA was generated with reverse transcriptase iScript (Bio-Rad). RT-qPCR was performed using SYBR Select Master Mix (Applied Biosystems) in OneStepPlus detection system (Applied Biosystems). Oligos for amplification were: NOXA Fw-[…] and Rv-[…]; b-ACTIN Fw-[…] and Rv-[…]; IL1a Fw-[…] and Rv- […]; IL1b Fw-[…] and Rv- […]; IL8 Fw-[…] and Rv-[…]; p16 Fw-CGGTCGGAGGCCGATCCAG and Rv- […]; p21Fw-[…] and Rv- […]."}, "[5]": {"tested_on": "IMR90 cells at passage 27 (replicative senescence)", "assay": "Cell survival assay using crystal violet staining, replicative senescence", "excerpt": "IMR90 (CCL-186) human foetal lung fibroblasts and A549 (CCL-185) human lung adenocarcinoma cells were obtained from the American Type Culture Collection (ATCC, Manassas, VA). The cell lines were confirmed to be mycoplasma negative (Lonza MycoAlert, cat #LT07-118). IMR90 ER:RAS is a derivative of IMR90 cells expressing a switchable version of oncogenic H-Ras[84]. IMR90 ER:RAS and A549 cells were maintained in Dulbecco’s Modified Eagle Medium (DMEM, ThermoFisher) supplemented with foetal bovine serum (10%), L-glutamine (2 mM, ThermoFisher), and antibiotic-antimycotic solution (1%, ThermoFisher) and incubated under standard tissue culture conditions (37 °C and 5% CO2). For induction of the senescent phenotype, IMR90-ER:RAS cells were cultured in hydroxytamoxifen (4-OHT) (Sigma) added media at 100 nM final concentration. IMR90 were kept in culture for over 27 passages for replicative senescence. Cells were tested for mycoplasma on a regular basis.\nas §1"}, "[6]": {"tested_on": "caspase 3/7 activity in senescent IMR90 ER:RAS cells", "assay": "Caspase 3/7 activity assay", "parameters": "Caspase 3/7 activity time course (SUP FIG 9F) / Caspase 3/7 activity time course (SUP FIG 9F exp not shown): unit not given here", "conditions": "for Caspase 3/7 activity time course (SUP FIG 9F) / Caspase 3/7 activity time course (SUP FIG 9F exp not shown): ER:RAS cells; for Caspase 3/7 activity time course (SUP FIG 9F exp not shown): second experiment, data not shown", "method": "IMR90 ER:STOP and IMR90 ER:RAS cells were cultured with 100 nM 4-OHT for 5 days. Cell were then plated in a multiwell plate at high density. Once cells were attached, Caspase 3/7 probe (C10423 Invitrogen) and senolytic drugs, oleandrin, ouabain and periplocin at 10 nM, were added to the media and cultured for 36 h. Time lapse imaging was recorded every hour on a Leica AF6500 microscope (10x). ImageJ 1.53k was used for positive cell counting."}, "[7]": {"tested_on": "control IMR90 ER:STOP cells", "assay": "Cell survival assay using crystal violet staining, OIS, control cells", "conditions": "FIG 4B, ER:STOP cells", "method": "as §1"}, "[8]": {"tested_on": "NOXA mRNA in IMR90 cells at passage 27", "assay": "NOXA mRNA expression by RT-qPCR, replicative senescence", "method": "as §2"}, "[9]": {"tested_on": "Na+/K+ ATPase pump (intracellular K+) in senescent IMR90 ER:RAS cells", "assay": "Intracellular K+ determination with Asante staining, OIS", "method": "Cells were cultured for control and senescent phenotype and then treated with the senolytics oleandrin, ouabain and periplocin at 10 nM for 72 h. Asante (Asante Potassium Green-2 AM, abcam ab142806) was added to the culture 30 min before fixation, following manufacturer instructions. DAPI staining was done before image acquisition on Nikon TI2 microscope (20x). Image analysis was performed using ImageJ 1.53k for setting intensity threshold and measuring mean intensity."}}, "note": "Where “and” joins values, the source holds several entries; their conditions need not be identical. Equal entries are not always repeated.", "data": [{"smiles": "CO[C@H]1C[C@H](O[C@H]2CC[C@@]3(C)[C@H](CC[C@@H]4[C@@H]3CC[C@]3(C)[C@@H](C5=CC(=O)OC5)[C@@H](OC(C)=O)C[C@]43O)C2)O[C@@H](C)[C@@H]1O", "note": "[Oleandrin, oleandrin]", "values": [{"measurement": "% Cell Survival", "setting": "[1]; FIG 4B, ER:RAS cells, individual replicate values, ER:STOP DMSO = 100", "value": "37.9% and 39.1% and 12.2% and 30.1% and 44.2% and 34.9% and 40.3% and 12.5% and 41% and 10.4% and 36% and 34.1%"}, {"measurement": "Mean (cell survival, Tukey test details)", "setting": "[1]; FIG 4B, ER:RAS cells, mean of n=12 as fraction of STOP DMSO = 1", "value": 0.3106}, {"measurement": "cytotoxic activity / cellular content (crystal violet), in words", "setting": "[1]; IMR90-ER:RAS cells undergoing OIS, 10 nM, 72 h", "value": "significant drop in cellular content"}, {"measurement": "Cell survival, mean (Test details, Mean 2)", "setting": "[2]", "value": 0.3827}, {"measurement": "% BrdU positive cells, mean (Test details, Mean 2)", "setting": "[3]; IMR90 cells, n 4", "value": 69.23, "unit": "%"}, {"measurement": "% BrdU positive cells", "setting": "[3]; IMR90 cells, single replicates (SUP FIG 9G)", "value": "69.38% and 67.43% and 69.89% and 70.23%"}, {"measurement": "proliferation by BrdU incorporation, in words", "setting": "[3]; proliferating IMR90 cells, 10 nM", "value": "none of the cardiac glycosides induced unwanted changes in proliferation"}, {"measurement": "NOXA mRNA expression, group mean (Test details, Mean 2)", "setting": "[4]; ER:RAS cells, 10 nM, mean of n=4", "value": 49.05}, {"measurement": "NOXA mRNA expression", "setting": "[4]; ER:RAS cells, 10 nM, relative to ER:STOP DMSO = 1, individual replicate values", "value": "43.71 and 48.67 and 52.89 and 50.91"}, {"measurement": "NOXA mRNA expression, in words", "setting": "[4]; OIS IMR90 ER:RAS, 10 nM (Fig. 5c)", "value": "significant increase"}, {"measurement": "Mean (cell survival, Tukey test details)", "setting": "[5]; FIG 4C, RS cells, mean of n=12 as fraction of Young DMSO = 1", "value": 0.4453}, {"measurement": "% Cell Survival", "setting": "[5]; FIG 4C, Replicative Senescence (RS) cells, individual replicate values, Control DMSO = 100", "value": "54.5% and 40.7% and 48% and 38.1% and 50.7% and 43.4% and 31.1% and 55% and 50.3% and 37.4% and 44.9% and 40.3%"}, {"measurement": "cellular content in senescent cultures (crystal violet), in words", "setting": "[5]; replicative senescence IMR90, 10 nM, 72 h", "value": "significant reduction in cellular content"}, {"measurement": "Caspase 3/7 activity time course (SUP FIG 9F)", "setting": "[6]; 01:00:00 hours", "value": 0.9}, {"measurement": "Caspase 3/7 activity time course (SUP FIG 9F exp not shown)", "setting": "[6]; 01:00:00 hours", "value": 0.75}, {"measurement": "Caspase 3/7 activity time course (SUP FIG 9F)", "setting": "[6]; 05:00:00 hours", "value": 1.1}, {"measurement": "Caspase 3/7 activity time course (SUP FIG 9F exp not shown)", "setting": "[6]; 05:00:00 hours", "value": 1.25}, {"measurement": "Caspase 3/7 activity time course (SUP FIG 9F)", "setting": "[6]; 10:00:00 hours", "value": 2.3}, {"measurement": "Caspase 3/7 activity time course (SUP FIG 9F exp not shown)", "setting": "[6]; 10:00:00 hours", "value": 3.9}, {"measurement": "Caspase 3/7 activity time course (SUP FIG 9F)", "setting": "[6]; 15:00:00 hours", "value": 3}, {"measurement": "Caspase 3/7 activity time course (SUP FIG 9F exp not shown)", "setting": "[6]; 15:00:00 hours", "value": 7.9}, {"measurement": "Caspase 3/7 activity time course (SUP FIG 9F)", "setting": "[6]; 20:00:00 hours", "value": 4}, {"measurement": "Caspase 3/7 activity time course (SUP FIG 9F exp not shown)", "setting": "[6]; 20:00:00 hours", "value": 13.8}, {"measurement": "Caspase 3/7 activity time course (SUP FIG 9F)", "setting": "[6]; 1 day, 1:00:00", "value": 7.8}, {"measurement": "Caspase 3/7 activity time course (SUP FIG 9F exp not shown)", "setting": "[6]; 1 day, 1:00:00", "value": 16.55}, {"measurement": "Caspase 3/7 activity time course (SUP FIG 9F)", "setting": "[6]; 1 day, 6:00:00", "value": 11}, {"measurement": "Caspase 3/7 activity time course (SUP FIG 9F exp not shown)", "setting": "[6]; 1 day, 6:00:00", "value": 18.55}, {"measurement": "Caspase 3/7 activity time course (SUP FIG 9F)", "setting": "[6]; 1 day, 11:00:00", "value": 13.5}, {"measurement": "Caspase 3/7 activity time course (SUP FIG 9F exp not shown)", "setting": "[6]; 1 day, 11:00:00", "value": 19.65}, {"measurement": "Casp3/7 activity (percentage of green fluorescent cells)", "setting": "[6]; ER:RAS, 100 nM 4OHT, 10 nM compound, 35 h", "value": 92.2, "unit": "%"}, {"measurement": "% Cell Survival", "setting": "[7]; individual replicate values, ER:STOP DMSO = 100", "value": "89.1% and 95.2% and 73.8% and 89.4% and 107.6% and 89% and 95.8% and 77.8% and 100% and 72.7% and 87.5% and 82.7%"}, {"measurement": "Mean (cell survival, Tukey test details)", "setting": "[7]; mean of n=12 as fraction of STOP DMSO = 1", "value": 0.8838}, {"measurement": "NOXA mRNA expression, group mean (Test details, Mean 2)", "setting": "[8]; Replicative Senescence (RS) cells, 10 nM, mean of n=3", "value": 56.63}, {"measurement": "NOXA mRNA expression", "setting": "[8]; Replicative Senescence cells, 10 nM, relative to Control DMSO = 1, individual replicate values", "value": "62.46 and 54.37 and 53.07"}, {"measurement": "NOXA mRNA expression, in words", "setting": "[8]; replicative senescence IMR90, 10 nM (Fig. 5d)", "value": "significant increase"}, {"measurement": "Asante Mean intensity", "setting": "[9]; FIG 4E, ER:RAS cells, individual replicate values", "value": "67.9 and 72 and 68.8 and 66.6 and 77 and 61.9"}, {"measurement": "Mean (Asante Mean intensity, Tukey test details)", "setting": "[9]; FIG 4E, ER:RAS cells, mean of n=7", "value": 68.87}, {"measurement": "K+ intracellular concentration, in words", "setting": "[9]; OIS IMR90, 10 nM, 72 h", "value": "significantly reduced"}]}]}
